Experimental data reported in paper PMC10552397 (Cell Communication and Signaling : CCS, 2023).
Several values for one entry are separate records, joined by “and”; a condition that tells them apart may be missing. Equal values may be shown once. Read-outs that look alike come from different tables or passages of the source.

Legend:
[1] = tested on: HeLa GRASP55 KO cells; experiment: cells; settings: Homo sapiens, read-out: IC50 value GRASP55 KO
Method: Cell viability was measured using the MTT (3-(4,5-dimethylthiazol-2-yl)-2,5-diphenyltetrazolium bromide) assay. HeLa cells were seeded in 96-well plates with a density of 5*10^3 cells/well. […] After the incubation time, 20 µL of a 5 mg/mL MTT stock solution (ROTH, Karlsruhe, Germany, #4022.3) were added to the cells and they were incubated at 37 °C and 5% CO2 in a humidified atmosphere for 30 min. Upon removal of the MTT-containing medium 100 µL DMSO per well were added for extraction of the formazan. Absorbance was measured at 570 nm and 650 nm (reference) with a microplate reader (SynergyMx, BioTek, Winooski, VT, USA). After subtraction of the reference value, the mean of the absorbance of the solvent control was set as 100% and the relative viability was calculated for each sample.
GRASP55 KO cells were generated using the CRISPR/Cas9 system developed by the Zhang lab [59]. Double-stranded DNA oligos (5´-[sequence]-3´, 3´-[sequence]-5´), encoding guide RNAs (gRNAs) against the target gene were cloned into the Bbsl restriction site of pSpCas9(BB)-2A-GFP (PX458) vector gifted from Feng Zhang (Addgene plasmid #48,138; http://n2t.net/addgene:48138; RRID:Addgene_48138). […]
All IC50 values were calculated using GraphPad Prism 7.01.

[2] = molecular target: T1, proteins of HeLa wt cells (Homo sapiens, UniProt P30837); experiment: biochemical; settings: for normalized.Reporter.intensity: single replicates n1-n3
T1 sequence (P30837 18-517): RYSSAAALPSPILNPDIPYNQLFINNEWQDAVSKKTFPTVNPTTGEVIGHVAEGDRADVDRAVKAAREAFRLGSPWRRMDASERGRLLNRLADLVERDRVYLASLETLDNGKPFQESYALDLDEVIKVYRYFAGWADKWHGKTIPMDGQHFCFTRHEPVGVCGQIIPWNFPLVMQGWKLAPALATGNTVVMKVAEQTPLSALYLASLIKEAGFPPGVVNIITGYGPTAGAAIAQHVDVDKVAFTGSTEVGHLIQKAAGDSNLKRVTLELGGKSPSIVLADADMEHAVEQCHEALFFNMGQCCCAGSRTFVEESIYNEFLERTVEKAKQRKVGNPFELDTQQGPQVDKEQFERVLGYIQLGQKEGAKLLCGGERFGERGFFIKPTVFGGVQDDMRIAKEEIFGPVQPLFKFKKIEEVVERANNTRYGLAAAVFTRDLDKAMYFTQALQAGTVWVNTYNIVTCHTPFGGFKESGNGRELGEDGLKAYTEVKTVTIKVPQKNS
Method: Adherent cells were washed in the dish once with DPBS and harvested by Trypsin–EDTA (0.25%, Thermo Fisher Scientific, Waltham, MA, USA, #25,200,056) treatment. After addition of 35 mL DPBS, the cells were pelleted by centrifugation (300 rcf, 5 min, 4 °C), and washed twice by re-suspending and pelleting using 45 mL and 1 mL DPBS, respectively, to remove excess trypsin and for transfer into pre-weighed 2 mL Eppendorf tubes to determine the cell pellet wet weights as quality check after centrifugation (300 rcf, 5 min, 4 °C) and complete removal of the supernatant. Cells for TPP-TR were resuspended using 1 mL, and cells for TPP-CCR were resuspended using 0.4 mL ice-cold DPBS, respectively, supplemented with protease inhibitor cocktail (Roche, Basel, Switzerland, #5,892,791,001). […] Cell suspensions were shortly centrifuged (1 s or less) using a benchtop centrifuge to release trapped air and to achieve an even liquid level without pelleting the cells. The samples were then temperature treated by a 7 min pre-incubation at RT, 3 min temperature treatment in the PCR cycler (DNA Engine Tetrad 2, lid temperature 70 °C) at different temperatures (37 °C or 50 °C for TPP-CCR or the temperatures given in Table 2 for TPP-TR) and a 3 min post-incubation at RT in a metal heating block for uniform heat dissipation.
After temperature treatment, samples were supplemented with lysis buffer (final concentrations: 0.36 U/µL benzonase, 1.5 mM MgCl2, 1 mM Na3VO4, 10 mM NaF, 2.5 mM Na4P2O7, 0.8% w/v NP-40) for 1 h on ice. The lysates were cleared from cell debris as well as denatured and precipitated proteins by centrifugation at 20,000 rcf and 4 °C for 30 min. The total protein concentration of the resulting cell extracts containing the fraction of soluble, non-denatured proteins was determined (Pierce 660 nm Protein Assay, BSA as standard). Cell extracts were shock frozen in liquid nitrogen and stored at -80 °C. The three replicates for TPP-TR and TPP-CCR were prepared on consecutive days, respectively. The two (37 °C or 50 °C) x ten (concentrations) x three (replicates) = 60 TPP-CCR samples and two (treatment and control) x ten (temperatures) x three (replicates) = 60 TPP-TR samples were analyzed by LC–MS/MS. GRASP55 was additionally quantified from the TPP-TR samples by immunoblotting as described in the respective section.
For TPP-CCR, SP3 was performed as described with slight modifications to the original protocol using on average 5 µg total protein per sample and resulting in theoretically 5 µg peptides in 22 µL 50 mM triethylammonium bicarbonate per sample. For each of the two (treatment and control) x three (replicates) = six TPP-TR temperature treatment sample sets, the same volume for each of the ten temperature samples was used for SP3 processing, thus, maintaining the information about the temperature dependent non-denatured protein content. This volume was calculated such that the lowest two temperature samples (36.5 °C and 41.2 °C) contained 10 µg total protein on average. The samples were diluted using SDS containing buffer (20 µL final, final concentrations: 7.5% glycerol, 3% SDS, 37.5 mM Tris/HCl pH 7.0) and the proteins were reduced, alkylated, and precipitated on the solid phase as described using adjusted volumes (2 × due to processing 10 µg instead of 5 µg). Volumes for washing of the aggregated proteins on the solid phase and for tryptic digestion were kept unchanged, however, to maintain the maximal total protein to trypsin/Lys-C ratio at 50:1 in the two rounds of digestion (13 h and 4 h), respectively, 2 × 0.2 µg trypsin/Lys-C was used per sample, theoretically resulting in at most about 10 µg peptides in 22 µL 50 mM triethylammonium bicarbonate.

CCCCCC1=C/C(=C/c2[nH]c(-c3ccc[nH]3)cc2OC)N=C1C [Prodigiosin, prodigiosin]
IC50 ([1]; 24 h): 1420 nM
IC50 ([1]; 72 h): 83.3 nM
EC50 [2]: 4.37 nM
diff pseudoR2(50-37°C) ([2]; ALDH1B1): 0.88
pseudoR2 (dose response curve fit, 37°C) ([2]; ALDH1B1, 37°C): 0.0136
normalized.Reporter.intensity ([2]; ALDH1B1, 37°C, 0.0976562 nM prodigiosin): -0.04 and -1.95 and 1.19
normalized.Reporter.intensity ([2]; ALDH1B1, 37°C, 0.390625 nM prodigiosin): 0.86 and 1.70 and 1.19
normalized.Reporter.intensity ([2]; ALDH1B1, 37°C, 1.5625 nM prodigiosin): 1.45 and -0.51 and 0.96
normalized.Reporter.intensity ([2]; ALDH1B1, 37°C, 6.25 nM prodigiosin): 2.17 and -0.34 and 2.41
normalized.Reporter.intensity ([2]; ALDH1B1, 37°C, 25 nM prodigiosin): 1.79 and 0.42 and 0.87
normalized.Reporter.intensity ([2]; ALDH1B1, 37°C, 100 nM prodigiosin): -0.83 and -1.09 and 2.36
normalized.Reporter.intensity ([2]; ALDH1B1, 37°C, 400 nM prodigiosin): -1.07 and -1.13 and 1.65
normalized.Reporter.intensity ([2]; ALDH1B1, 37°C, 1600 nM prodigiosin): -1.06 and 0.17 and 2.67
normalized.Reporter.intensity ([2]; ALDH1B1, 37°C, 6400 nM prodigiosin): -0.10 and 1.67 and -1.95
H (dose response curve fit parameters, 37°C) ([2]; ALDH1B1, 37°C, Hill slope of fit): 1.47e-8
pseudoR2 (dose response curve fit, 50°C) ([2]; ALDH1B1, 50°C): 0.89
normalized.Reporter.intensity ([2]; ALDH1B1, 50°C, 0.0976562 nM prodigiosin): 0.23 and -0.0339 and 0.17
normalized.Reporter.intensity ([2]; ALDH1B1, 50°C, 0.390625 nM prodigiosin): 0.32 and 0.04 and 0.17
normalized.Reporter.intensity ([2]; ALDH1B1, 50°C, 1.5625 nM prodigiosin): 0.40 and 0.42 and 0.21
normalized.Reporter.intensity ([2]; ALDH1B1, 50°C, 6.25 nM prodigiosin): 0.69 and 0.56 and 0.41
normalized.Reporter.intensity ([2]; ALDH1B1, 50°C, 25 nM prodigiosin): 0.66 and 0.74 and 0.67
normalized.Reporter.intensity ([2]; ALDH1B1, 50°C, 100 nM prodigiosin): 1.06 and 0.92 and 1.01
normalized.Reporter.intensity ([2]; ALDH1B1, 50°C, 400 nM prodigiosin): 0.70 and 0.97 (2×)
normalized.Reporter.intensity ([2]; ALDH1B1, 50°C, 1600 nM prodigiosin): 0.78 and 0.95 and 0.92
normalized.Reporter.intensity ([2]; ALDH1B1, 50°C, 6400 nM prodigiosin): 1.11 and 0.90 and 1.01
H (dose response curve fit parameters, 50°C) ([2]; ALDH1B1, 50°C, Hill slope of fit): 0.60
